The target in assay [1] is T1, mutant MGL (mut-MGLL 11-313 L179S L186S) (Homo sapiens, UniProt Q99685, L169S/L176S).
T1 construct: purified mutant MGL (mut-MGLL 11-313 L179S L186S)
T1 sequence (Q99685 1-303 L169S/L176S): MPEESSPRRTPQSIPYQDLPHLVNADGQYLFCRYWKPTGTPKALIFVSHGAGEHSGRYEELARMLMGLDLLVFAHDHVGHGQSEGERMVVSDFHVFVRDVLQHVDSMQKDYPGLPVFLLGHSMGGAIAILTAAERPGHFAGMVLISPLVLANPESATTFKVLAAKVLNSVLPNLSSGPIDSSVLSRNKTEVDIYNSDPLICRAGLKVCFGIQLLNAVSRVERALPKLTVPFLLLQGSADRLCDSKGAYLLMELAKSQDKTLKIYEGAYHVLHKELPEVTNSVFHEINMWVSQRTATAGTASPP
Briefly: MGL Enzyme Activity Assay, purified mutant MGL, 4MU-B substrate. It counts as biochemical. Conditions: mutant MGL 5 nM, 4MU-B 10 μM, 37° C.; read-out: MGL mutant inh IC50. As for the experimental part:
All rate-based assays were performed in black 384-well polypropylene PCR microplates (Abgene) in a total volume of 30 μL. Substrate 4-methylumbelliferyl butyrate (4MU-B; Sigma) and either purified mutant MGL (mut-MGLL 11-313 L179S L186S) or purified wild type MGL (wt-MGLL 6H-11-313) were diluted separately into 20 mM PIPES buffer (pH=7.0), containing 150 mM NaCl and 0.001% Tween 20. Compounds of Formula (I), including Formulas I(a), I(b), and I(c), were pre-dispensed (50 nL) into the assay plate using a Cartesian Hummingbird prior to adding 4MU-B (25 μL of 1.2× solution to a final concentration of 10 μM) followed by enzyme (5 μL of a 6× solution to a final concentration of 5 nM) to initiate the reaction. Final compound concentrations ranged from 17 to 0.0003 μM. The fluorescence change due to 4MU-B cleavage was monitored with excitation and emission wavelengths of 335 and 440 nm, respectively, and a bandwidth of 10 nm (Safire^2, Tecan) at 37° C. for 5 min.
The IC50 values for the following compounds were determined using Microsoft Office Excel from a fit of the equation to the concentration-response plot of the fractional activity as a function of inhibitor concentration.

The next assay addresses T2, MGL (Rattus norvegicus, UniProt Q8R431).
T2 construct: one g rat brain was homogenized using a Polytron homogenizer; from tissue; host or cells: rat brain homogenate
T2 sequence (Q8R431 1-303): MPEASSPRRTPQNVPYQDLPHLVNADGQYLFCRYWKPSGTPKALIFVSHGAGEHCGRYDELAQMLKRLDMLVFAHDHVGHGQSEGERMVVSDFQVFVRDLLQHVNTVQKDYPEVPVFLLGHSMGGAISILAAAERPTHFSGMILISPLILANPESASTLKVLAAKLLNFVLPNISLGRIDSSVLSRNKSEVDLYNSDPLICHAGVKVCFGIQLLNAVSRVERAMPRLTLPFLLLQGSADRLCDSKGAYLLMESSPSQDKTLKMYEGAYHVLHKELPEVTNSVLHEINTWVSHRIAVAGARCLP
Briefly: 2-AG Accumulation Assay in rat brain homogenate. The following applies: compound @10 µM, percent of vehicle, read-out: Rat Brain 2AG % VehCntrl (%) @10 µM. It counts as biochemical.

In the next assay the target is T3, mutant MGL (Homo sapiens, UniProt Q99685, L169S/L176S).
T3 construct: purified mutant MGL (mut-MGLL 11-313 L179S L186S)
T3 sequence (Q99685 1-303 L169S/L176S): T1 sequence (Q99685 1-303 L169S/L176S)
Briefly: MGL ThermoFluor Assay - Mutant. The following applies: 0.07 mg/ml mutant MGL, 100 μM ANS, pH 7.0. It is filed as binding. The procedure: The ThermoFluor (TF) assay is a 384-well plate-based binding assay that measures thermal stability of proteins^1,2. The experiments were carried out using instruments available from Johnson & Johnson Pharmaceutical Research & Development, LLC. TF dye used in all experiments was 1,8-ANS (Invitrogen: A-47). Final TF assay conditions used for MGL studies were 0.07 mg/ml of mutant MGL, 100 μM ANS, 200 mM NaCl, 0.001% Tween-20 in 50 mM PIPES (pH=7.0).
Screening compound plates contained 100% DMSO compound solutions at a single concentration. […] Columns 12 and 24 were used as DMSO reference and contained no compound. […] Following compound dispension, protein and dye solutions were added to achieve the final assay volume of 3 μL.
Bar-coded assay plates were robotically loaded onto a thermostatically controlled PCR-type thermal block and then heated from 40 to 90° C. degrees at a ramp-rate of 1° C./min for all experiments. Fluorescence was measured by continuous illumination with UV light (Hamamatsu LC6), supplied via fiber optics and filtered through a band-pass filter (380-400 nm; >60D cutoff). Fluorescence emission of the entire 384-well plate was detected by measuring light intensity using a CCD camera (Sensys, Roper Scientific) filtered to detect 500±25 nm, resulting in simultaneous and independent readings of all 384 wells. A single image with 20-sec exposure time was collected at each temperature, and the sum of the pixel intensity in a given area of the assay plate was recorded vs temperature and fit to standard equations to yield the Tm^1. • 1.
The Kd values for certain compounds of Formula (I) were determined from a fit of the equation to the concentration-response plot of the fractional activity as a function of […]. For some experiments, quantitative NMR spectroscopy (qNMR) was used to measure concentration of the initial 100% DMSO compound solutions and, using the same fitting method, qKd values were determined.
A general note: In DSF a fluorescence change marks the thermal transition of the protein.

SMILES strings stand for the structures.

Take `O=C(NC1CN(C2CN(C(=O)c3ccc(Cc4cccc(C(F)(F)F)c4)cc3)C2)C1)c1nccs1` [Cpd 20, N-[1′-({4-[3-(Trifluoromethyl)benzyl]phenyl}carbonyl)-1,3′-biazetidin-3-yl]-1,3-thiazole-2-carboxamide]: in assay [1], the IC50 (commonly the midpoint of a concentration-inhibition curve) was determined as 65 nM. Moreover, the activity at 10 µM on MGL came out at 977%.

For `O=C(c1ccc2nc(-c3cccc(C(F)(F)F)c3)oc2c1)N1CC(N2CC(N3Cc4ccccc4C3=O)C2)C1` [Cpd 78, 2-[1′-({2-[3-(Trifluoromethyl)phenyl]-1,3-benzoxazol-6-yl}carbonyl)-1,3′-biazetidin-3-yl]-2,3-dihydro-1H-isoindol-1-one], the IC50 in assay [1] amounted to 17 nM. Moreover, the Kd (usually the concentration at which binding is half-saturated) at mutant MGL turned out to be 40 nM.

Regarding `O=C(NC1CN(C2CN(C(=O)c3cc4ccc(Br)cc4s3)C2)C1)c1nccs1` [Cpd 23, N-{1′-[(6-Bromo-1-benzothiophen-2-yl)carbonyl]-1,3′-biazetidin-3-yl}-1,3-thiazole-2-carboxamide], the half-maximal inhibitory concentration (IC50) in assay [1] was found to be 93 nM. Besides, the activity at 10 µM at MGL worked out at 343%.

Take `O=C(NC1CN(C2CN(C(=O)c3nc4cc(C(F)(F)F)ccc4s3)C2)C1)c1nccs1` [Cpd 47, N-(1′-{[5-(Trifluoromethyl)-1,3-benzothiazol-2-yl]carbonyl}-1,3′-biazetidin-3-yl)-1,3-thiazole-2-carboxamide]: the IC50 in assay [1] amounted to 4750 nM. Moreover, the dissociation constant Kd at mutant MGL was determined as 2500 nM.

In the case of `Cc1c(C(=O)N2CC(N3CC(NC(=O)c4nccs4)C3)C2)sc2ccc(Cl)cc12` [Cpd 15, N-{1′-[(5-Chloro-3-methyl-1-benzothiophen-2-yl)carbonyl]-1,3′-biazetidin-3-yl}-1,3-thiazole-2-carboxamide], the IC50 in assay [1] worked out at 28 nM. The activity at 10 µM on MGL was determined as 611%.

With `O=C(c1cc2cc(Br)ccc2s1)N1CC(N2CC(N3Cc4ccccc4C3=O)C2)C1` [Cpd 93, 2-{1′-[(5-Bromo-1-benzothiophen-2-yl)carbonyl]-1,3′-biazetidin-3-yl}-2,3-dihydro-1H-isoindol-1-one], the IC50 in assay [1] is 360 nM. This compound also came in with a Kd at mutant MGL of 76.9 nM.

`O=C(NC1CN(C2CN(C(=O)c3ccc4cc(-c5ccccc5)ccc4c3)C2)C1)c1nccs1` [Cpd 21, N-{1′-[(6-Phenylnaphthalen-2-yl)carbonyl]-1,3′-biazetidin-3-yl}-1,3-thiazole-2-carboxamide]: the IC50 in assay [1] is 69 nM. In addition, the activity at 10 µM on MGL amounted to 581%.

With `O=C(c1ccc2c(Br)cccc2c1)N1CC(N2CC(N3Cc4ccccc4C3=O)C2)C1` [Cpd 83, 2-{1′-[(5-Bromonaphthalen-2-yl)carbonyl]-1,3′-biazetidin-3-yl}-2,3-dihydro-1H-isoindol-1-one], in assay [1], the IC50 turned out to be 23 nM. The activity at 10 µM at MGL amounted to 416%.

`O=C(NC1CN(C2CN(C(=O)c3ccc4c(Br)cccc4c3)C2)C1)c1ccccc1` [Cpd 24, N-{1′-[(5-Bromonaphthalen-2-yl)carbonyl]-1,3′-biazetidin-3-yl}benzamide]: in assay [1], the IC50 was 99 nM. Besides, on MGL, the activity at 10 µM turned out to be 73%.

Take `O=C(c1ccc(Cc2cccc(C(F)(F)F)c2)cc1)N1CC(N2CC(N3Cc4ccccc4C3=O)C2)C1` [Cpd 86, 2-[1′-({4-[3-(Trifluoromethyl)benzyl]phenyl}carbonyl)-1,3′-biazetidin-3-yl]-2,3-dihydro-1H-isoindol-1-one]: the IC50 in assay [1] worked out at 50 nM. Moreover, on MGL, the activity at 10 µM was found to be 447%.

Regarding `O=C(NC1CN(C2CN(C(=O)c3ccc4c(-c5ccccc5)cccc4c3)C2)C1)c1nccs1` [Cpd 53, N-{1′-[(5-Phenylnaphthalen-2-yl)carbonyl]-1,3′-biazetidin-3-yl}-1,3-thiazole-2-carboxamide], the IC50 in assay [1] was < 5 nM. Also, on MGL, the activity at 10 µM was determined as 722%.

For the compound `O=C(c1ccc2nc(-c3ccc(Cl)cc3)oc2c1)N1CC(N2CC(N3Cc4ccccc4C3=O)C2)C1` [Cpd 88, 2-(1′-{[2-(4-Chlorophenyl)-1,3-benzoxazol-6-yl]carbonyl}-1,3′-biazetidin-3-yl)-2,3-dihydro-1H-isoindol-1-one], in assay [1], the IC50 is 96 nM. For the same compound, the activity at 10 µM at MGL worked out at 294%.

Consider `CN(C(=O)c1nccs1)C1CN(C2CN(C(=O)c3cc4ccc(C(F)(F)F)cc4s3)C2)C1` [Cpd 37, N-Methyl-N-(1′-{[6-(trifluoromethyl)-1-benzothiophen-2-yl]carbonyl}-1,3′-biazetidin-3-yl)-1,3-thiazole-2-carboxamide], for which the IC50 in assay [1] is 476 nM.

As for `O=C(NC1CN(C2CN(C(=O)c3ccc4oc(-c5ccccc5)nc4c3)C2)C1)c1nccs1` [Cpd 35, N-{1′-[(2-Phenyl-1,3-benzoxazol-5-yl)carbonyl]-1,3′-biazetidin-3-yl}-1,3-thiazole-2-carboxamide], the IC50 in assay [1] came to 341 nM.

As to `O=C(NC1CN(C2CN(C(=O)c3ccc4nc(-c5ccccc5)sc4c3)C2)C1)c1cscn1` [Cpd 22, N-{1′-[(2-Phenyl-1,3-benzothiazol-6-yl)carbonyl]-1,3′-biazetidin-3-yl}-1,3-thiazole-4-carboxamide], the IC50 in assay [1] was 86 nM.

For `O=C(NC1CN(C2CN(C(=O)c3ccc4nc(-c5ccc(C(F)(F)F)cc5)oc4c3)C2)C1)c1nccs1` [Cpd 30, N-[1′-({2-[4-(Trifluoromethyl)phenyl]-1,3-benzoxazol-6-yl}carbonyl)-1,3′-biazetidin-3-yl]-1,3-thiazole-2-carboxamide], the IC50 in assay [1] amounted to 264 nM.

As to `O=C(NC1CN(C2CN(C(=O)c3ccc4c(Br)cccc4c3)C2)C1)c1nccs1` [Cpd 19, N-{1′-[(5-Bromonaphthalen-2-yl)carbonyl]-1,3′-biazetidin-3-yl}-1,3-thiazole-2-carboxamide], the IC50 in assay [1] came out at 63 nM. Besides, the activity at 10 µM on MGL came to 418%.

As for `O=C(NC1CN(C2CN(C(=O)c3ccc4nc(-c5ccccc5)oc4c3)C2)C1)c1ccccc1` [Cpd 41, N-{1′-[(2-Phenyl-1,3-benzoxazol-6-yl)carbonyl]-1,3′-biazetidin-3-yl}benzamide], the IC50 in assay [1] stood at 939 nM.

Regarding `O=C(c1ccc2c(ccn2-c2ccccc2C(F)(F)F)c1)N1CC(N2CC(N3Cc4ccccc4C3=O)C2)C1` [Cpd 89, 2-[1′-({1-[2-(Trifluoromethyl)phenyl]-1H-indol-5-yl}carbonyl)-1,3′-biazetidin-3-yl]-2,3-dihydro-1H-isoindol-1-one], in assay [1], the IC50 was determined as 98 nM. Also, at MGL, the activity at 10 µM was determined as 663%.

Turning to `O=C(c1ccccc1)c1ccc(C(=O)N2CC(N3CC(NC(=O)c4nccs4)C3)C2)cc1` [Cpd 38, N-(1′-{[4-(Phenylcarbonyl)phenyl]carbonyl}-1,3′-biazetidin-3-yl)-1,3-thiazole-2-carboxamide], the half-maximal inhibitory concentration (IC50) in assay [1] amounted to 588 nM.

Regarding `O=C(NC1CN(C2CN(C(=O)c3ccc(-c4ccccc4)cc3)C2)C1)c1nccs1` [Cpd 29, N-[1′-(Biphenyl-4-ylcarbonyl)-1,3′-biazetidin-3-yl]-1,3-thiazole-2-carboxamide], the half-maximal inhibitory concentration (IC50) in assay [1] stood at 184 nM.

The record behind these values is patent US8759333B2, “Di-azetidinyl diamide as monoacylglycerol lipase inhibitors” (Janssen Pharmaceutica, NV, priority 2010, dated 2014).
